According to US4116972A, “Anti-inflammatory 1-oxo-isoindoline derivatives and processes for their preparation” (Fuji Chemical Industry Company Limited, priority 1975, dated 1978):
Like-named read-outs stand apart in the source and are kept apart here.

Tests used:
[1] = tested on: male rats of the Wistar strain; test: Analgesic effect, Pressure Method; type: in vivo, rat (male
Method: (§1) The rats were tested in groups of six. Only those animals having a normal pain threshold in both hind legs were selected for the tests. The compound to be tested was suspended in 0.3% carboxymethylcellulose aqueous solution and administered orally. […] The analgesic activity was tested by the Pressure Method [Brit. J. […] Int.

stomach [2] = test: Effect on gastric ulcer, first method (single oral administration); type: in vivo, rat (male, Donryu strain); conditions: 18 hours
Method: (§2) Each compound to be tested was suspended in a 0.3% solution of carboxymethylcellulose in physiological saline and administered in an amount of 1 ml per 200 g body weight of the rat. Determination of the occurrence of gastric inflammation and ulceration was calculated by adding the sizes of ulcerated regions (mm^2) of each rat observed within a lattice (width 1 cm, divided into 10 equal parts) of a stereomicroscope. The determination was made on the stomach removed after sacrifice of the animal and then fixed for 10 minutes with 1% formalin.
In a first method, the compound to be tested was administered orally after 24 hours starvation and then, after a further 18 hours, the animal was sacrificed, under ether anaesthesia.

[3] = tested on: male rats of the Wistar strain; test: Analgesic effect, Acetic Acid Raising Method; type: in vivo, rat (male; design: unit not given here
stomach [4] = test: Effect on gastric ulcer, second method (repeated oral administration); type: in vivo, rat (male, Donryu strain)
Method: Male rats of the Donryu strain having a body weight of 150-200 g were starved for 24 hours and the effects of administration of Compound 1 and its aluminium salt (Compound 7) on the occurrence of gastric ulcers were determined, as were the effects of other known anti-inflammatory agents.
as §2
As a second method, first oral administration was effected after 24 hours starvation and a second oral administration was effected after a further 12 hours starvation. Each animal was then sacrificed, under ether anaesthesia, 6 hours after the second administration. This method was employed to observe the effect after repeated administration of the compounds of the invention.

Solubility = type: physicochemical
[5] = tested on: male rats of the Wistar strain; test: Analgesic effect, Randall-Selitto Method; type: in vivo, rat (male
Method: as §1

[6] = tested on: male rats of the Wistar strain; test: Analgesic effect, overall (Pressure, Acetic Acid Raising and Randall-Selitto methods); type: in vivo, rat (male; conditions: oral
Method: as §1

[7] = tested on: carrageenin-induced oedema; test: Carrageenin-oedema test in rats (anti-inflammatory activity); type: in vivo, rat (male, Wistar strain)
Method: Compound 1 was administered through a stomach tube, in suspension in a 0.3% by weight carboxymethylcellulose aqueous solution, in an amount of 6.25 mg/kg or 12.5 mg/kg to male rats of the Wistar strain having a body weight of 120-130 g. After 1 hour, inflammation was induced by injecting subcutaneously […] of a 1% carrageenin suspension into the plantar tissue of the right hind paw of each rat. Paw oedema was measured volumetrically,immediately before and also every hour for 5 hours after the carrageenin injection, and the response, measured as the oedema effect (E) was calculated by the following equation: […]
where Vo and VT represents the paw volumes O and T after the carrageenin injection, respectively.
The tests were also carried out on a control group of rats to which no anti-inflammatory agent had been administered. Each test was carried out on a group of six rats.
The inhibitory effect was measured by the inhibitory ratio (IR), calculated from the following equation:
IR = […] 100 (%)
where Ec represents the oedema ratio of the control rats and E represents the oedema ratio of the rats treated with Compound 1.
The inhibitory ratio was determined on administration of various amounts of Compound 1 and the results obtained 3 hours after carrageenin injection are shown in Table 1.

[8] = tested on: rats of the Wistar strain; test: Acute toxicity (oral); type: in vivo; conditions: one week after administration
Method: (§3) Compound 1 was administered in the amounts shown in Table 3 to male rats of the Wistar strain having a body weight of 110-130 g. The rats were tested in groups of eight and similar tests were applied to similar groups of female rats. The compound to be tested was suspended in a 0.3% aqueous solution of carboxymethylcellulose and was administered through a stomach tube. The lethal dose 50% (LD50) and credibility limit 95% (CL) were calculated from the lethal effect by the method of Litchield and Wilcoxon [J. Pharmac. Exp. Ther., 96, 99 (1949)]; the lethal effect was expressed as X/n, in which X is the number of animals which were dead one week after administration and n is the total number of animals used in the test.

Acute toxicity (oral) = type: in vivo; conditions: in vivo; for LD50 at 168 h: rat, po
Method: as §3

[9] = 200 × 2 mg/kg P.O., Aspirin marked * (significant difference vs phenylbutazone at p = 0.01)
[10] = 50 mg/kg P.O., Compound 7 marked ** (significant difference vs phenylbutazone at p = 0.01)
[11] = 50 × 2 mg/kg P.O., vs phenylbutazone: Compound 1 * (p = 0.01), Compound 7 ** (p = 0.1), 2 mg/kg

Cc1c(N(C)C)c(=O)n(-c2ccccc2)n1C [Aminopyrine]
Pressure method, Ratio (average) ([1]; 150 mg/kg orally): 2.02

CCCCC1C(=O)N(c2ccccc2)N(c2ccccc2)C1=O [Phenylbutazone]
Size of ulcerated region of stomach (stomach [2]; 200 mg/kg P.O.): 6.6 ± 1.31 mm^2 | Acetic Acid Raising method, a (graded response) ([3]; 200 mg/kg orally): 25.8 | Acetic Acid Raising method, b (all or none response) ([3]; 200 mg/kg orally): 20 | Size of ulcerated region of stomach (stomach [4]; [9]): 17.2 ± 1.93 mm^2

CC(C(=O)O)c1ccc(N2CC3=C(CC=CC3)C2=O)cc1 (stereo not drawn) [Compound 7, Aluminium α-[4-(1-oxo-4,7-dihydro-2-isoindolinyl)phenyl]propionate]
solubility in dimethyl sulphoxide (Solubility; dimethyl sulphoxide): slightly soluble | solubility in most organic solvents (Solubility; most organic solvents): sparingly soluble | Size of ulcerated region of stomach (stomach [2]; [10]): 2.4 ± 0.49 mm^2 | Size of ulcerated region of stomach (stomach [4]; [11]): 10.3 ± 1.00 mm^2

CC(=O)Oc1ccccc1C(=O)O [Aspirin]
Size of ulcerated region of stomach (stomach [2]; 200 mg/kg P.O.): 9.7 ± 1.36 mm^2 | Size of ulcerated region of stomach (stomach [4]; [9]): 27.2 ± 3.01 mm^2

COc1ccc2c(c1)c(CC(=O)O)c(C)n2C(=O)c1ccc(Cl)cc1 [Indomethacin]
Size of ulcerated region of stomach (stomach [2]; 20 mg/kg P.O.): 8.0 ± 1.22 mm^2 | Size of ulcerated region of stomach (stomach [4]; 20 × 2 mg/kg P.O.): 15.3 ± 1.20 mm^2

CC(C)Cc1ccc(C(C)C(=O)O)cc1 (centres unmarked) [Ibuprofen]
Randall-Selitto method, Analgesic index, Inflamed foot ([5]; 100 mg/kg orally): 1.20 | Randall-Selitto method, Analgesic index, Normal foot ([5]; 100 mg/kg orally): 1.05 | Acetic Acid Raising method, a (graded response) ([3]; 200 mg/kg orally): 21.9 | Acetic Acid Raising method, b (all or none response) ([3]; 200 mg/kg orally): 20

Cc1cccc(Nc2ccccc2C(=O)O)c1C [Mefenamic acid]
Acetic Acid Raising method, a (graded response) ([3]; 150 mg/kg orally): 45.4 | Acetic Acid Raising method, b (all or none response) ([3]; 150 mg/kg orally): 60

CC(C(=O)O)c1cccc(C(=O)c2ccccc2)c1 (centres unmarked) [Ketoprofen]
Randall-Selitto method, Analgesic index, Inflamed foot ([5]; 10 mg/kg orally): 1.20 | Randall-Selitto method, Analgesic index, Normal foot ([5]; 10 mg/kg orally): 1.03 | Acetic Acid Raising method, a (graded response) ([3]; 100 mg/kg orally): 53.8 | Acetic Acid Raising method, b (all or none response) ([3]; 100 mg/kg orally): 60 | Pressure method, Ratio (average) ([1]; 100 mg/kg orally): 1.40

CC(C(=O)O)c1ccc(N2CC3=C(CC=CC3)C2=O)cc1 (stereo not drawn) [Compound 1, α-[4-(1-oxo-4,7-dihydro-2-isoindolinyl)phenyl]propionic acid]
Size of ulcerated region of stomach (stomach [2]; [10]): 4.1 ± 0.46 mm^2 | Randall-Selitto method, Analgesic index, Inflamed foot ([5]; 10 mg/kg orally): 1.21 | Randall-Selitto method, Analgesic index, Normal foot ([5]; 10 mg/kg orally): 1.04 | Acetic Acid Raising method, a (graded response) ([3]; 100 mg/kg orally): 21.0 | Acetic Acid Raising method, b (all or none response) ([3]; 100 mg/kg orally): 7 | analgesic effect (in words) [6]: weak | Inhibitory ratio ([7]; 5 mg/kg oral, 3 hours after carrageenin injection): 33.2% | Inhibitory ratio ([7]; 10 mg/kg oral, 3 hours after carrageenin injection): 57.1% | Inhibitory ratio ([7]; 20 mg/kg oral, 3 hours after carrageenin injection): 64.7% | Inhibitory ratio ([7]; 40 mg/kg oral, 3 hours after carrageenin injection): 69.0% | dose dependence of inhibitory effect (in words) ([7]; 5-40 mg/kg, 3 hours after carrageenin injection): increased in rough proportion to the amount of Compound 1 administered | inhibitory effect over the first 5 hours (in words) ([7]; 6.25 or 12.5 mg/kg oral): strong inhibitory effect appeared over the first 5 hours | onset of inhibitory effect (in words) ([7]; 6.25 or 12.5 mg/kg oral): clearly appeared at the end of the first hour after carrageenin injection | ED50 ([7]; 3 h, oral, rat carrageenin oedema, range printed 4.0-30.9 mg/kg, read-out: ED50 (effective dose 50%)): 11.1 mg/kg | inhibitory effect on carrageenin-induced oedema (in words) ([7]; rat hind paw oedema): particularly strong inhibitory effect | Pressure method, Ratio (average) ([1]; 150 mg/kg orally): 1.36 | Lethal effect, Female (dead/total) ([8]; 180 mg/kg oral): 1/8 | Lethal effect, Male (dead/total) ([8]; 180 mg/kg oral): 0/8 | Lethal effect, Female (dead/total) ([8]; 234 mg/kg oral): 2/8 | Lethal effect, Male (dead/total) ([8]; 234 mg/kg oral): 2/8 | Lethal effect, Female (dead/total) ([8]; 304 mg/kg oral): 3/8 | Lethal effect, Male (dead/total) ([8]; 304 mg/kg oral): 4/8 | Lethal effect, Female (dead/total) ([8]; 395 mg/kg oral): 5/8 | Lethal effect, Male (dead/total) ([8]; 395 mg/kg oral): 5/8 | Lethal effect, Female (dead/total) ([8]; 514 mg/kg oral): 6/8 | Lethal effect, Male (dead/total) ([8]; 514 mg/kg oral): 6/8 | Lethal effect, Female (dead/total) ([8]; 668 mg/kg oral): 8/8 | Lethal effect, Male (dead/total) ([8]; 668 mg/kg oral): 8/8 | selectivity ratio (Acute toxicity (oral); oral LD50 male rat / ED50 carrageenin oedema rat, read-out: therapeutic index (LD50/ED50)): 29.6 | LD50 at 168 h (Acute toxicity (oral); female rats, 95% CL (250-476), read-out: LD50, Female): 345 mg/kg | LD50 at 168 h (Acute toxicity (oral); male rats, 95% CL (238-453), read-out: LD50, Male): 328 mg/kg | Size of ulcerated region of stomach (stomach [4]; [11]): 11.3 ± 2.00 mm^2
